Patent US4100153A, “(D-Trp^5)-somatostatin and analogues thereof” (American Home Products Corporation, priority 1977, dated 1978)
Bridge positions count the residues as written; N and C are the ends. Square brackets hold non-standard residues; d marks the D form. Peptide text beside a SMILES is read from it.

Tests used:
Assay type in all cases: in vivo
growth hormone = assay: Arginine-stimulated hormone secretion in Nembutal-treated rats, radioimmunoassay of growth hormone
Protocol: (§1) Albino male rats were administered Nembutal intraperitoneally at a dose of 50 milligrams per kilogram. Fifteen minutes later a subcutaneous injection of the test compound or physiological saline was administered. Ten minutes later 0.5 milliliters of arginine (300 milligrams per milliliter, pH 7.2) is injected into the heart. Five minutes after receipt of the arginine the rats are decapitated and blood is collected into trasylol-EDTA. An appropriate aliquot was assayed for growth hormone, insulin, and glucagon by radioimmunoassay.

insulin = assay: Arginine-stimulated hormone secretion in Nembutal-treated rats, radioimmunoassay of insulin
Protocol: as §1

glucagon = assay: Arginine-stimulated hormone secretion in Nembutal-treated rats, radioimmunoassay of glucagon
Protocol: as §1

growth hormone secretion = assay: Effect on growth hormone secretion over time in rats treated with Nembutal, plasma GH by radioimmunoassay; conditions: for Growth Hormone: dose 1,000 μg/kg
Protocol: (D-Trp^5, D-Trp^8)-Somatostatin was also tested for its effect on growth hormone secretion in rats treated with Nembutal after 1, 2, 4, 5, 6, and 8 hours. Blood samples were obtained by cardiac puncture and plasma separated for radio immunoassay of GH concentration.

C[C@H](N)C(=O)NCC(=O)N[C@H]1CSSC[C@@H](C(=O)O)NC(=O)[C@H](CO)NC(=O)[C@H]([C@@H](C)O)NC(=O)[C@H](Cc2ccccc2)NC(=O)[C@H]([C@@H](C)O)NC(=O)[C@H](CCCCN)NC(=O)[C@@H](Cc2c[nH]c3ccccc23)NC(=O)[C@H](Cc2ccccc2)NC(=O)[C@H](Cc2ccccc2)NC(=O)[C@@H](Cc2c[nH]c3ccccc23)NC(=O)[C@H](CCCCN)NC1=O [(D-Trp^5, D-Trp^8)-Somatostatin, L-alanylglycyl-L-cysteinyl-L-lysyl-D-tryptophyl-L-phenylalanyl-L-phenylalanyl-D-tryptophyl-L-lysyl-L-threonyl-L-phenylalanyl-L-threonyl-L-seryl-L-cysteine cyclic (3→14)-disulfide, triacetate] (H-AGCK[dW]FF[dW]KTFTSC-OH; disulfide 3-14)
GH (growth hormone; dose 10 μg/kg subcutaneous, control 133 ± 32): 40 ± 6 ng/mL | GH (growth hormone; dose 100 μg/kg subcutaneous, control 133 ± 32): 25 ± 5 ng/mL | GH (growth hormone; dose 1,000 μg/kg subcutaneous, blood 15 min after dosing, 5 min after arginine, control 259 ± 29): 52 ± 5 ng/mL | Effect on secretion of growth hormone (in words) (growth hormone; dose of 10 or 100 μg/kg): effective agent for reducing secretion of growth hormone | Effect on release of growth hormone (in words) (growth hormone; higher dose (1 mg/kg)): inhibited release of growth hormone | Insulin (insulin; dose 10 μg/kg subcutaneous, control 348 ± 36): 183 ± 12 μU/ml | Insulin (insulin; dose 100 μg/kg subcutaneous, control 348 ± 36): 105 ± 9 μU/ml | Insulin (insulin; dose 1,000 μg/kg subcutaneous, control 314 ± 46): 33 ± 6 μU/ml | Effect on secretion of insulin (in words) (insulin; dose of 10 or 100 μg/kg): effective agent for reducing secretion of growth hormone and insulin | Effect on release of insulin (in words) (insulin; higher dose (1 mg/kg)): inhibited release of growth hormone, insulin | Glucagon (glucagon; dose 10 μg/kg subcutaneous, control 44 ± 8, marked * not significant): 36 ± 5 pg/mL | Glucagon (glucagon; dose 100 μg/kg subcutaneous, control 44 ± 8, marked * not significant): 31 ± 5 pg/mL | Glucagon (glucagon; dose 1,000 μg/kg subcutaneous, control 46 ± 7): 17 ± 4 pg/mL | Effect on glucagon levels (in words) (glucagon; dose of 10 or 100 μg/kg): without materially affecting glucagon levels | Effect on release of glucagon (in words) (glucagon; higher dose (1 mg/kg)): inhibited release of growth hormone, insulin, and glucagon | Duration of inhibition of growth-hormone release (in words) (growth hormone secretion; 1,000 μg/kg, 1 to 8 hours): long-acting inhibition of growth-hormone release | Growth Hormone (growth hormone secretion; time 1 hr, control 61 ± 14): 5 ± 2 ng/mL | Growth Hormone (growth hormone secretion; time 2 hrs, control 227 ± 44): 16 ± 2 ng/mL | Growth Hormone (growth hormone secretion; time 4 hrs, control 84 ± 13): 32 ± 10 ng/mL | Growth Hormone (growth hormone secretion; time 5 hrs, control 73 ± 11): 16 ± 3 ng/mL | Growth Hormone (growth hormone secretion; time 6 hrs, control 156 ± 42): 22 ± 2 ng/mL | Growth Hormone (growth hormone secretion; time 8 hrs, control 55 ± 22): 31 ± 11 ng/mL
